Experimental findings from US11434222B2, “MAGL inhibitors” (H. LUNDBECK A/S, priority 2020, dated 2022) are described below.

The subject of this assay is kainic acid induced seizures. Briefly: Kainic acid seizure model in the rat. The format is in vivo. Conditions: for anticonvulsant effects in the kainic acid seizure test: rat; for magnitude of the effects in the kainic acid seizure test compared with reference: middle-high doses, reference Diazepam 16 mg/kg p.o. The method, then:
Kainic acid is an analog of the excitatory neurotransmitter, glutamate and acts as an agonist of kainic acid receptors. After systemic injection, kainic acid induces prolonged excitatory responses with many of the features of human temporal lobe epilepsy.
Rats, placed in individual Plexiglas cages (33×21×18 cm), are injected with kainic acid (20 mg/kg i.p.). The occurrences of the following symptoms are noted over a 120-minute period 30 minutes after kainic acid injection: forelimb clonus, rearings and rearings with falling, clonic convulsions, tonic convulsions and death. The presence of each symptom and the latencies to the first appearance of the symptoms are measured. The number of forelimb clonus is counted.
12 rats are studied per group. The test is performed partially blind.
The test substances will be evaluated at multiple doses, administered p.o. 240 minutes before the test, and compared with the corresponding vehicle control group (Group 2, administered with 10% HP-b-CD in distilled water, p.o. 240 minutes before the test).
Example 6 was evaluated at 0.3, 1, 3 and 10 mg/kg, and Example 8 was evaluated at 1, 3 and 10 mg/kg, administered p.o. 4 hours before the test, and compared with a vehicle control group (administered with 10% HP-b-CD, p.o. 4 hours before the test).
Diazepam (16 mg/kg) used as reference substance, was administered p.o. 60 minutes before the test (0.5% HP-b-CD) and was compared with vehicle controls.
Quantitative data (latencies) with the test substance was analyzed by comparing treated groups with vehicle control using Kruskal-Wallis test followed by Mann-Whitney U test. Quantitative data with the reference substance will be analysed using Mann-Whitney U test.
Quantal data (frequencies) were analyzed by comparing treated groups with vehicle control using Fisher's Exact Probability tests.

In the case of `O=C(Nc1cccnn1)[C@H]1CC12CCN(C(=O)OC(C(F)(F)F)C(F)(F)F)CC2` [Example 6, 1,1,1,3,3,3-hexafluoropropan-2-yl (S)-1-(pyridazin-3-ylcarbamoyl)-6-azaspiro[2.5]octane-6-carboxylate], the “magnitude of the effects in the kainic acid seizure test compared with reference” value was “close to those observed with the reference substance, Diazepam”. The “anticonvulsant effects in the kainic acid seizure test” value (dose-range 0.3-10 mg/kg p.o. 4 hours before the test) is “clear anticonvulsant effects”.

On to `O=C(NC1CCOCC1)[C@H]1CC12CCN(C(=O)OC(C(F)(F)F)C(F)(F)F)CC2` [Example 8, 1,1,1,3,3,3-hexafluoropropan-2-yl (S)-1-[(oxan-4-yl)carbamoyl]-6-azaspiro[2.5]octane-6-carboxylate], for which the “magnitude of the effects in the kainic acid seizure test compared with reference” value was “close to those observed with the reference substance, Diazepam”. For the setting “dose-range 1-10 mg/kg p.o. 4 hours before the test”, the “anticonvulsant effects in the kainic acid seizure test” value was “clear anticonvulsant effects”.
